Results: article PMC6149849, “Cymantrenyl-Nucleobases: Synthesis, Anticancer, Antitrypanosomal and Antimicrobial Activity Studies” (Molecules : A Journal of Synthetic Chemistry and Natural …, 2017)
Where two headings read alike, the source gives them in different places.

Assays:
[1] = tested on: S. epidermidis ATCC 12228; test: Antibacterial liquid microdilution (CLSI M07-A8); type: cell-based, Staphylococcus epidermidis; details: 18 to 24 h
Protocol: Organometallic compounds play an increasingly important role in the search for new antibacterial agents. We, therefore, thought to investigate also the bactericidal activity of the newly synthesized cymantrenes 1–7, compound C and CymH. The antibacterial activity of the compounds was tested against Gram-positive methicillin-sensitive Staphylococcus aureus (MSSA), methicillin-resistant S. aureus (MRSA), vancomycin-intermediate S. aureus (VISA), S. epidermidis, and Gram-negative Escherichia coli bacterial strains, and expressed as minimal inhibitory concentration (MIC) values (Table 3).
The antibacterial activity of CymH, 1–7 and C and the reference drugs penicillin G and polymyxin B was tested by the liquid microdilution method under standard conditions using twofold dilution series, as described in the Clinical and Laboratory Standards Institute (CLSI), reference method M07-A8, and expressed as minimal inhibitory concentration (MIC) values. A panel of Gram-positive bacterial strains, S. aureus ATCC® 29213 (sensitive to methicillin, (MSSA)), S. aureus ATCC® 43300 (resistant to methicillin, (MRSA)), S. aureus ATCC 700787™ (intermediate to vancomycin, (VISA)), and S. epidermidis ATCC 12228™, and one Gram-negative, strain E. coli ATCC BAA-198™ (ESBL) were used. In addition, four clinical isolates of S. aureus (MSSA and MRSA) and two clinical isolates of S. epidermidis that were collected from different patients at the Medical University of Warsaw, Poland, were also tested. The bacterial cells were cultivated on tryptic soy agar (TSA) and nutrient agar (NA), according to ATCC recommendations. All of the strains were incubated at 37 °C. Tested compounds were dissolved in DMSO and then serially diluted twofold with cation-adjusted Mueller-Hinton broth (CAMHB). Then, 95 µL of the dilutions were dispensed into microdilution sterile plates (Mar-Four), followed by the addition of 5 µL of bacteria inoculum containing 5 × 10^4 CFU/mL. The final concentrations of the compounds ranged from 512 to 2 µg/mL. Each compound was tested in triplicate, and Penicillin G (8–0.15 µg/mL) and Polymyxin B (256–0.0625 µg/mL) were used as controls. The plates were incubated at 37 °C for 18 to 24 h depending on the bacterial strain. Thereafter, the absorbance was measured at λ = 540 nm and λ = 595 nm using a Spectrostar Omega microplate reader (BMG Labtech, Offenburg, Germany). The MIC value was defined as the lowest concentration of a compound that reduced the growth by 100%.

[2] = tested on: U87-MG (glioblastoma); test: MTT cytotoxicity assay, U87-MG; type: cell-based, human
Protocol: Anticancer activity of cymantrenes was determined using a panel of human cancer cell lines that were derived from solid tumors. […] The inhibitory effect of cymantrene derivatives on cell proliferation and growth was determined based on survival curves and was expressed as IC50 values (concentration required to achieve a 50% decrease in cell viability when compared to the viability of untreated control cells) calculated using GraphPad Prism 4.02 software for Windows (GraphPad Software, San Diego, CA, USA). Cell viability was determined by the MTT microplate spectrophotometric cytotoxicity test.
Cells were grown as a monolayer in DMEM growth medium, supplemented with 10% FBS, penicillin (10 U/mL) and streptomycin (50 μg/mL), under standard conditions (37 °C, 5% CO2 and 95% air, 100% humidity) and periodically checked for Mycoplasma contamination.
The cytotoxicity of cymantrene derivatives was evaluated by the MTT microplate methods as described elsewhere [67] by incubating the cells with increasing concentrations of tested compounds for 24 h. Briefly, 0.1 mL of logarithmically growing cells were seeded in a 96-well microplate (5 × 10^4 cells/well) a day before the experiments and after 24 h of culture, tested compounds, dissolved in DMSO, and diluted in culture medium, were added. […] After further incubation for 24 h, the medium was replaced with fresh medium and the cells were allowed to grow for additional 48 h. Then, the medium was aspirated and 0.05 mL of MTT (final concentration of 5 mg/mL medium) added to each well, and the cells were incubated for further 4 h. The absorbance of the product, resulting from the MTT reduction, was read with a microplate reader at 545 nm. The percentage of viable cells was calculated by comparing the absorbance of treated cells with that of the untreated control cells (taken as 100%). The IC50 concentration of each compound was calculated from the cell survival curves using GraphPad Prism 4.02 software for Windows (GraphPad Software, San Diego, CA, USA).

[3] = tested on: SKOV-3 cells; test: Autophagy (acidic vesicular organelles, AVOs), acridine orange staining; type: cell-based, human; details: SKOV-3, IC50 concentrations 24 h, then 0, 24 or 48 h drug-free
Protocol: To determine the mode of cell death that was triggered by cymantrene derivatives, appropriately stained SKOV-3 cells were evaluated for morphological changes using fluorescence microscopy. For evaluation of apoptosis and autophagy, cells were stained with Hoechst 33258/propidium iodide to distinguish between live, apoptotic and necrotic cells and reveal condensed chromatin and apoptotic bodies (a hallmark of apoptosis), and with acridine orange to detect the development of acidic vesicular organelles (AVOs—a hallmark of autophagy).
One day prior to the experiments, cells were seeded at the appropriate density into 35 mm diameter dishes. […] At the end of incubation, the medium was aspirated, the cell monolayer was washed twice with pre-warmed PBS, and fresh medium was added. The cells were cultured in drug-free medium for an additional 24 or 48 h to enable them to recover after the exposure to the compounds and to repair any induced damages.
The ability of tested compounds to induce autophagosome formation inside cells (the process associated with the induction of autophagy) was evaluated by microscopic examination of the morphology of cells stained with acridine orange (AO).

[4] = tested on: bloodstream forms of T. brucei clone 427-221a; test: Trypanocidal assay, resazurin viability assay; type: cell-based, Trypanosoma brucei; details: for GI50: 50% growth inhibition; for MIC and GI50 ratios of cytotoxic to trypanocidal activities: HL-60 / T. brucei; for MIC: concentration at which all cells were killed, determined microscopically; for Selectivity GI50 Ratio / Selectivity MIC Ratio: ratio of cytotoxic (HL-60) to trypanocidal (T. brucei) activity
Protocol: All of the cultures were maintained at 37 °C in a humidified atmosphere containing 5% of CO2. Toxicity assays were performed, as previously described, with some modifications. In brief, trypanosomes and HL-60 cells were seeded at an initial cell density of 10^4/mL and 5 × 10^4/mL, respectively, in 96-well plates in a final volume of 200 μL culture medium containing various concentrations of test compounds dissolved in 100% DMSO. […] The controls contained DMSO alone. In all of the experiments, the final DMSO concentration was 0.9%. After 24 h incubation, 20 µL of a 0.5 mM resazurin solution prepared in PBS was added and the cultures were incubated for a further 48 h. Resazurin is a vital dye that, when being reduced by living cells, changes its colour from blue to pink. Thus, by measuring absorbance, the proliferation of cells can be easily determined. The change in absorbance was read with a microplate reader using a test wavelength of 570 nm and a reference wavelength of 630 nm. GI50 values were calculated by linear interpolation according to the method described by Huber and Koella. MIC values were determined microscopically.

[5] = 24 h incubation, MTT, means ± SEM, read-out: cytotoxicity IC50, U87-MG

Structure (SMILES)	MIC, S. epidermidis ATCC 12228 [1] [µg/mL]	IC50 [2] [µM]	induction of autophagy (cells containing AVOs) [3]	GI50 [4] [µM]	MIC and GI50 ratios of cytotoxic to trypanocidal activities [4]	MIC [4] [µM]	Selectivity GI50 Ratio [4]	Selectivity MIC Ratio [4]	IC50 [2, 5] [µM]
CCC(=O)[C]12[CH]3[CH]4[CH]5[CH]1[Mn]4532.[C-]#[O+].[C-]#[O+].[C-]#[O+] (stereo not drawn) [Compound 7, propionylocymantrene]	>512	83.6 ± 1.18	greatest autophagic changes	–	–	–	–	–	–
O=C(CCn1cc(F)c(=O)[nH]c1=O)[C]12[CH]3[CH]4[CH]5[CH]1[Mn]4532.[C-]#[O+].[C-]#[O+].[C-]#[O+] (stereo not drawn) [Compound 1]	8	64.5 ± 3.22	Less induction of autophagy	3.02 ± 0.14	7–13	10	11.0	10	–
Nc1ncnc2c1ncn2CCC(O)[C]12[CH]3[CH]4[CH]5[CH]1[Mn]45321[P](c2ccccc2)(c2ccccc2)CC[P]1(c1ccccc1)c1ccccc1.[C-]#[O+] (racemic) [Compound C]	16	38.3 ± 1.91	greatest autophagic changes	–	–	–	–	–	–
COC(CCn1cnc2c(N(C)C)ncnc21)[C]12[CH]3[CH]4[CH]5[CH]1[Mn]4532.[C-]#[O+].[C-]#[O+].[C-]#[O+] (racemic) [Compound 6]	>512	131 ± 3.53	greatest autophagic changes	26.1 ± 1.9	–	100	3.6	>1	–
COC(CCn1cc(F)c(=O)n(C)c1=O)[C]12[CH]3[CH]4[CH]5[CH]1[Mn]4532.[C-]#[O+].[C-]#[O+].[C-]#[O+] (racemic) [Compound 4]	>512	> 150	Less induction of autophagy	29.6 ± 6.8	–	100	>3.4	>1	–
O=[C]=[Mn](=[C]=O)(=[C]=O)[CH]1C=CC=C1 [CymH, tricarbonyl(η^5-cyclopentadienyl)manganese, reference compound]	>512	–	greatest autophagic changes	44.6 ± 12.3	–	100	>2.2	>1	84.4 ± 4.22
Nc1ncnc2c1ncn2CCC(O)[C]12[CH]3[CH]4[CH]5[CH]1[Mn]4532[P](c1ccccc1)(c1ccccc1)c1ccccc1.[C-]#[O+].[C-]#[O+] (racemic) [Compound 5]	>256	–	Less induction of autophagy	3.14 ± 0.31	7–13	10	9.1	10	54.2 ± 2.71
O=c1[nH]c(=O)n(CCC(O)[C]23[CH]4[CH]5[CH]6[CH]2[Mn]5643[P](c2ccccc2)(c2ccccc2)c2ccccc2)cc1F.[C-]#[O+].[C-]#[O+] (racemic) [Compound 3]	>256	–	very little autophagic activity	4.27 ± 0.13	7–13	10	7.2	10	24.9 ± 1.24
